The supplement of paper PMC10307832

Assays:
Experiment in all cases: relative viability (nuclei count vs DMSO), 5 days (fraction); higher = more cells survive
[1] = compound: N[C@@H]1CCCN(c2c(/C=C3\SC(=O)NC3=O)cccc2-c2ccccc2)C1 [AZD1208] + CS(=O)(=O)N1CCN(Cc2cc3nc(-c4cccc5[nH]ncc45)nc(N4CCOCC4)c3s2)CC1 [Pictilisib] (partner 1 µM)
Summary of the method: (§1)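 Each reported value is a median over duplicate plates. It expresses relative viability: treated-well nuclei count divided by vehicle-well nuclei count. Lung cancer cell lines in 1536-well plates were dosed by pin tool a day after seeding, alone with one drug or with a fixed anchor-drug dose plus five library-drug doses (not always all listed) in √10 steps, and nuclei were counted after 5 days.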

[2] = compound: CN1CCN(CC1)C2=CC(=C(C=C2)NC3=NC(=C(S3)C(=O)C4=C(C=CC=C4Cl)Cl)N)OC [XMD14-99] + O=C(c1cc(Cc2n[nH]c(=O)c3ccccc23)ccc1F)N1CCN(C(=O)C2CC2)CC1 [Olaparib] (partner 8 µM)
Summary of the method: as §1

[3] = compound: CN1CCN(CC1)C2=CC(=C(C=C2)NC3=NC(=C(S3)C(=O)C4=C(C=CC=C4Cl)Cl)N)OC [XMD14-99] + CCNC(=O)c1noc(-c2cc(C(C)C)c(O)cc2O)c1-c1ccc(CN2CCOCC2)cc1 [Luminespib] (partner 0.01 µM)
Summary of the method: as §1

[4] = compound: N[C@@H]1CCCN(c2c(/C=C3\SC(=O)NC3=O)cccc2-c2ccccc2)C1 [AZD1208] + NC(=O)Nc1cc(-c2cccc(F)c2)sc1C(=O)N[C@H]1CCCNC1 [AZD7762] (partner 0.2 µM)
Summary of the method: as §1

Cell Line: SK-MES-1
- relative viability ([1]; first compound 0.08 µM): 0.257
- relative viability ([1]; first compound 0.253 µM): 0.326
- relative viability ([1]; first compound 0.8 µM): 0.303
- relative viability ([1]; first compound 2.53 µM): 0.3
- relative viability ([1]; first compound 8 µM): 0.291
- relative viability ([2]; first compound 0.08 µM): 0.658
- relative viability ([2]; first compound 0.8 µM): 0.689
- relative viability ([2]; first compound 2.53 µM): 0.576
- relative viability ([2]; first compound 8 µM): 0.32
- relative viability ([3]; first compound 0.08 µM): 0.786
- relative viability ([3]; first compound 0.8 µM): 0.73
- relative viability ([3]; first compound 2.53 µM): 0.729
- relative viability ([3]; first compound 8 µM): 0.566

Cell Line: NCI-H2342
- relative viability ([4]; first compound 0.08 µM): 0.553
- relative viability ([4]; first compound 0.253 µM): 0.417
- relative viability ([4]; first compound 0.8 µM): 0.461
- relative viability ([4]; first compound 2.53 µM): 0.474
- relative viability ([4]; first compound 8 µM): 0.409
- relative viability ([2]; first compound 0.08 µM): 0.548
- relative viability ([2]; first compound 0.8 µM): 0.459
- relative viability ([2]; first compound 2.53 µM): 0.484
- relative viability ([2]; first compound 8 µM): 0.409
- relative viability ([3]; first compound 0.08 µM): 0.778
- relative viability ([3]; first compound 0.8 µM): 0.725
- relative viability ([3]; first compound 2.53 µM): 0.787
- relative viability ([3]; first compound 8 µM): 0.745

Cell Line: SW 900
- relative viability ([4]; first compound 0.08 µM): 0.62
- relative viability ([4]; first compound 0.253 µM): 0.518
- relative viability ([4]; first compound 0.8 µM): 0.453
- relative viability ([4]; first compound 2.53 µM): 0.576
- relative viability ([4]; first compound 8 µM): 0.485
- relative viability ([2]; first compound 0.08 µM): 0.831
- relative viability ([2]; first compound 0.8 µM): 0.845
- relative viability ([2]; first compound 2.53 µM): 0.766
- relative viability ([2]; first compound 8 µM): 0.525
- relative viability ([3]; first compound 0.08 µM): 0.165
- relative viability ([3]; first compound 0.8 µM): 0.163
- relative viability ([3]; first compound 2.53 µM): 0.204
- relative viability ([3]; first compound 8 µM): 0.144

Cell Line: HCC-366
- relative viability ([4]; first compound 0.08 µM): 0.368
- relative viability ([4]; first compound 0.253 µM): 0.362
- relative viability ([4]; first compound 0.8 µM): 0.371
- relative viability ([4]; first compound 2.53 µM): 0.41
- relative viability ([4]; first compound 8 µM): 0.387
- relative viability ([1]; first compound 0.08 µM): 0.112
- relative viability ([1]; first compound 0.253 µM): 0.0978
- relative viability ([1]; first compound 0.8 µM): 0.123
- relative viability ([1]; first compound 2.53 µM): 0.092
- relative viability ([1]; first compound 8 µM): 0.0878
- relative viability ([2]; first compound 0.08 µM): 0.375
- relative viability ([2]; first compound 0.8 µM): 0.344
- relative viability ([2]; first compound 2.53 µM): 0.315
- relative viability ([2]; first compound 8 µM): 0.243

Cell Line: A549
- relative viability ([1]; first compound 0.08 µM): 0.409
- relative viability ([1]; first compound 0.253 µM): 0.423
- relative viability ([1]; first compound 0.8 µM): 0.303
- relative viability ([1]; first compound 2.53 µM): 0.283
- relative viability ([1]; first compound 8 µM): 0.358
- relative viability ([2]; first compound 0.08 µM): 0.471
- relative viability ([2]; first compound 0.8 µM): 0.377
- relative viability ([2]; first compound 2.53 µM): 0.311
- relative viability ([2]; first compound 8 µM): 0.27

Cell Line: NCI-H520
- relative viability ([1]; first compound 0.08 µM): 0.238
- relative viability ([1]; first compound 0.253 µM): 0.278
- relative viability ([1]; first compound 0.8 µM): 0.201
- relative viability ([1]; first compound 2.53 µM): 0.185
- relative viability ([1]; first compound 8 µM): 0.184
- relative viability ([2]; first compound 0.08 µM): 0.344
- relative viability ([2]; first compound 0.8 µM): 0.381
- relative viability ([2]; first compound 2.53 µM): 0.32
- relative viability ([2]; first compound 8 µM): 0.196
- relative viability ([3]; first compound 0.08 µM): 0.191
- relative viability ([3]; first compound 0.8 µM): 0.219
- relative viability ([3]; first compound 2.53 µM): 0.217
- relative viability ([3]; first compound 8 µM): 0.223

Cell Line: NCI-H1563
- relative viability ([1]; first compound 0.08 µM): 0.566
- relative viability ([1]; first compound 0.253 µM): 0.545
- relative viability ([1]; first compound 0.8 µM): 0.672
- relative viability ([1]; first compound 2.53 µM): 0.635
- relative viability ([1]; first compound 8 µM): 0.629
- relative viability ([3]; first compound 0.08 µM): 0.505
- relative viability ([3]; first compound 0.8 µM): 0.551
- relative viability ([3]; first compound 2.53 µM): 0.546
- relative viability ([3]; first compound 8 µM): 0.48
